# In ChEMBL document CHEMBL1154854, “Synthesis and antioxidant properties of enone core based dendrimers with carbazole as surface group” (Eur J Med Chem, 2010):
# Calls of active or inactive are those of the source. No cut-off for these calls is given here.
# Columns and labels:
# [1] = tested on: Radical scavenging activity; assay: Antioxidant activity assessed as DPPH radical scavenging activity after 30 mins by spectrometric assay method; assay type: functional
# [2] = tested on: Radical scavenging activity; assay: Antioxidant activity assessed as DPPH radical scavenging activity at 20 to 1000 ug/mL after 30 mins by spectrometric assay method; assay type: functional
SMILES,IC50 [1],Activity [1],Activity [2]
O=C1O[C@H]([C@@H](O)CO)C(O)=C1O [ASCORBIC ACID],48 µg/mL,,
O=C1/C(=C/c2ccc(OCc3cc(OCc4ccc(-n5c6ccccc6c6ccccc65)cc4)cc(OCc4ccc(-n5c6ccccc6c6ccccc65)cc4)c3)cc2)CCC/C1=C\c1ccc(OCc2cc(OCc3ccc(-n4c5ccccc5c5ccccc54)cc3)cc(OCc3ccc(-n4c5ccccc5c5ccccc54)cc3)c2)cc1,,Dose-dependent effect,
Cc1c(C)c2c(c(C)c1O)CC[C@@](C)(CCC[C@H](C)CCC[C@H](C)CCCC(C)C)O2 [ALPHA-TOCOPHEROL],25 µg/mL,,
O=C1/C(=C/c2ccc(OCc3cc(OCc4cc(OCc5ccc(-n6c7ccccc7c7ccccc76)cc5)cc(OCc5ccc(-n6c7ccccc7c7ccccc76)cc5)c4)cc(OCc4cc(OCc5ccc(-n6c7ccccc7c7ccccc76)cc5)cc(OCc5ccc(-n6c7ccccc7c7ccccc76)cc5)c4)c3)cc2)CCC/C1=C\c1ccc(OCc2cc(OCc3cc(OCc4ccc(-n5c6ccccc6c6ccccc65)cc4)cc(OCc4ccc(-n5c6ccccc6c6ccccc65)cc4)c3)cc(OCc3cc(OCc4ccc(-n5c6ccccc6c6ccccc65)cc4)cc(OCc4ccc(-n5c6ccccc6c6ccccc65)cc4)c3)c2)cc1,48 µg/mL,,Active
COc1ccc(O)c(C(C)(C)C)c1.COc1ccc(O)cc1C(C)(C)C [BUTYLATED HYDROXYANISOLE],29 µg/mL,,
